Results taken from patent US20170266284A1, “PERSONALIZED METHODS FOR TREATING DISEASE BY RADIOSENSITIZATION” (Shuttle Pharmaceuticals, LLC, priority 2014, published 2017).
Values joined by “and” are separate entries in the source; they are usually repeats but may differ in a detail not shown here. Equal entries are not always repeated.

How the values were obtained:
[1] = tested on: clinical Stage 2 and 3 rectal cancers; settings: cited from earlier work; for patients achieving tumor (T stage) downstaging: pre-operative chemoradiation, continuous infusion 5-FU or twice daily capecitabine
[2] = tested on: proliferating normal tissues (bone marrow and intestine); settings: daily oral IPdR compared to continuous infusion IUdR; cited from earlier work
[3] = multiple daily oral IPdR dosing, pre-clinical; cited from earlier work
[4] = tested on: subcutaneous xenografts of human glioblastoma cell lines and human colorectal cancer cell lines; settings: daily oral IPdR compared to continuous infusion IUdR; cited from earlier work
[5] = tested on: locally advanced rectal cancer; assay: Concomitant daily oral capecitabine and oral IPdR during radiation therapy (proposed); assay type: in vivo, human; settings: oral IPdR with oral capecitabine during radiation therapy; expected ("may")
Method: This may, in turn, correlate with increased survival and improved quality of life for these patients. By establishing the MTD and documenting the plasma PK data for once daily oral administration of IPdR combined with fractionated radiation therapy (37.5 Gy @ 2.5 Gy fractions over 3 weeks), the daily (or twice daily) IPdR dose may be reduced by two dose levels, while using standard doses of capecitabine (750 mg/M^2) and radiation therapy (50.4-54 Gy @ 1.8 Gy fractions).

cells = settings: compared to cells without the defective DNA; cited from earlier work
High Grade Sarcomas = assay: IUdR as radiosensitizer with RT in patients with high grade sarcomas, vs historical controls; assay type: in vivo, human

SMILES: CCCCCOC(=O)Nc1nc(=O)n([C@@H]2O[C@H](C)[C@@H](O)[C@H]2O)cc1F [capecitabine]
- pCR, local recurrence, and overall survival, comparison with infusional 5-FU ([1]; capecitabine administered twice daily): equivalent to infusional 5-FU
- patients achieving tumor (T stage) downstaging [1]: about 45%

SMILES: O=c1ncc(I)cn1[C@H]1C[C@H](O)[C@@H](CO)O1 [IPdR, 5-iodo-2-pyrimidinone-2′-deoxyribose]
- decreased % IUdR-DNA incorporation into proliferating normal tissues (bone marrow and intestine / gut epithelium) [2]: 2-3 fold and 2 fold
- acute and subacute normal tissue toxicities [3]: without significant dose-limiting acute and subacute normal tissue toxicities
- increased % IUdR-DNA incorporation into tumor tissues [4]: 2-3 fold
- pCR rate [5]: > 30%

SMILES: O=c1[nH]c(=O)n([C@H]2C[C@H](O)[C@@H](CO)O2)cc1Br [BUdR, 5-bromo-2′-deoxyuridine]
- cells more susceptible to the lethal effects of radiation therapy (cells): two to three fold

SMILES: O=c1[nH]c(=O)n([C@H]2C[C@H](O)[C@@H](CO)O2)cc1I [IUdR, 5-iodo-2′-deoxyuridine]
- Median Survival (Months) (High Grade Sarcomas; RT + IUdR + Surgery, High Grade Sarcomas (Resectable), RT + Surgery 25%): 45%
- Median Survival (Months) (High Grade Sarcomas; RT + IUdR, High Grade Sarcomas (Un-Resectable), RT alone <10%): 60%
- cells more susceptible to the lethal effects of radiation therapy (cells): two to three fold

SMILES: O=c1[nH]cc(F)c(=O)[nH]1 [5-FU, 5-fluorouracil]
- patients achieving tumor (T stage) downstaging [1]: about 45%
